Assay results: ChEMBL document CHEMBL1201862, “PubChem BioAssay data set” (2004)
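The compound was tested at five concentrations on cells cultured in 96-well plates, with a 48-hour exposure period. GI50 is the concentration that inhibits growth by half.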 Calls of active or inactive are those of the source. Cut-off read from the data, not from the text of the source: active = GI50 up to about 1.1 µM and inactive = higher.

How the values were obtained:
Assay in all cases: DTP human tumour cell line panel, 48 h
NCI-H460 = test system: NCI-H460
SN12C = test system: SN12C
BT-549 = test system: BT-549
NCI-H226 = test system: NCI-H226
RXF 393 = test system: RXF 393
U-251 = test system: U-251
TK-10 = test system: TK-10
CCRF-CEM = test system: CCRF-CEM
OVCAR-8 = test system: OVCAR-8
PC-3 = test system: PC-3
MCF7 = test system: MCF7
CAKI-1 = test system: CAKI-1
NCI/ADR-RES = test system: NCI/ADR-RES
K562 = test system: K562
OVCAR-5 = test system: OVCAR-5
SNB-19 = test system: SNB-19
DU-145 = test system: DU-145
HCT-15 = test system: HCT-15
LOX IMVI = test system: LOX IMVI

Row | Structure (SMILES) | GI50 (NCI-H460) | GI50 (SN12C) | GI50 (BT-549) | GI50 (NCI-H226) | GI50 (RXF 393) | GI50 (U-251) | GI50 (TK-10) | GI50 (CCRF-CEM) | GI50 (OVCAR-8) | GI50 (PC-3) | GI50 (MCF7) | GI50 (CAKI-1) | GI50 (NCI/ADR-RES) | GI50 (K562) | GI50 (OVCAR-5) | GI50 (SNB-19) | GI50 (DU-145) | GI50 (HCT-15) | GI50 (LOX IMVI)
1 | CCOC(=O)c1c(NC(=O)c2ccc(OC)cc2)sc2c1CCCC2 | > 100 µM (inactive) | > 100 µM (inactive) | > 100 µM (inactive) | > 100 µM (inactive) | > 100 µM (inactive) | > 100 µM (inactive) | > 100 µM (inactive) | > 100 µM (inactive) | > 100 µM (inactive) | > 100 µM (inactive) | > 100 µM (inactive) | > 100 µM (inactive) | > 100 µM (inactive) | > 100 µM (inactive) | > 100 µM (inactive) | > 100 µM (inactive) | > 100 µM (inactive) | – | –
2 | C=CCC1(C#N)C(=S)NC2=C(C(=O)CC(C)(C)C2)C1c1ccccc1 (stereo not drawn) | – | 38.5 µM (inactive) | 66.7 µM (inactive) | 71.4 µM (inactive) | 42.7 µM (inactive) | 30.9 µM (inactive) | – | 83.6 µM (inactive) | 24 µM (inactive) | 32.2 µM (inactive) | – | 74.3 µM (inactive) | 56.9 µM (inactive) | 82.2 µM (inactive) | > 100 µM (inactive) | 31 µM (inactive) | 19.2 µM (inactive) | 70.1 µM | 68.9 µM (inactive)
3 | COc1ccc(NC(/C(C(=O)c2ccccc2)=C(\O)C(=O)/C=C(\O)c2ccccc2)c2ccc(OC)cc2)cc1 (stereo not drawn) | 43.6 µM (inactive) | > 100 µM (inactive) | 71.6 µM (inactive) | > 100 µM (inactive) | 37.1 µM (inactive) | 38.9 µM (inactive) | 30.3 µM (inactive) | 32.8 µM (inactive) | 59.6 µM (inactive) | 39.3 µM (inactive) | 39.5 µM (inactive) | 33.2 µM (inactive) | 40.3 µM (inactive) | 44.3 µM (inactive) | > 100 µM (inactive) | 65.8 µM (inactive) | 41.6 µM (inactive) | 42.1 µM | –
4 | CC1(C)N(OC2CCCCO2)C(c2ccccc2)C(c2ccccc2)=[N+]1[O-] (stereo not drawn) | 66.7 µM (inactive) | > 100 µM (inactive) | > 100 µM (inactive) | > 100 µM (inactive) | 47.5 µM (inactive) | > 100 µM (inactive) | > 100 µM (inactive) | 60.5 µM (inactive) | 32.1 µM (inactive) | 52.2 µM (inactive) | > 100 µM (inactive) | > 100 µM (inactive) | 49.2 µM (inactive) | 58.9 µM (inactive) | > 100 µM (inactive) | > 100 µM (inactive) | – | > 100 µM | > 100 µM (inactive)
5 | O=S1(=O)OCCOS(=O)(=O)C1S(=O)(=O)c1cccc2ccccc12 | 54.6 µM (inactive) | > 100 µM (inactive) | > 100 µM (inactive) | – | – | > 100 µM (inactive) | > 10 µM (inactive) | > 100 µM (inactive) | > 100 µM (inactive) | 42.3 µM (inactive) | > 100 µM (inactive) | > 100 µM (inactive) | > 100 µM (inactive) | 41.4 µM (inactive) | > 100 µM (inactive) | > 10 µM (inactive) | > 100 µM (inactive) | > 100 µM | 46.7 µM (inactive)
6 | CC(=O)Oc1ccc2c(c1)c1c(=O)oc(N(C)C)nc1n2Cc1ccccc1 | 52.2 µM (inactive) | > 100 µM (inactive) | 37.2 µM (inactive) | > 80.4 µM (inactive) | 52.5 µM (inactive) | 39 µM (inactive) | > 100 µM (inactive) | 55.6 µM (inactive) | 57.8 µM (inactive) | > 61.4 µM (inactive) | 25.2 µM (inactive) | – | 34.8 µM (inactive) | 39.4 µM (inactive) | > 100 µM (inactive) | > 100 µM (inactive) | > 100 µM (inactive) | 37.9 µM | 49.7 µM (inactive)
7 | O=C(/C=C/c1ccc(O)c(O)c1)OCCc1ccc2ccccc2c1 | 7.05 µM (inactive) | 5.26 µM (inactive) | 2.91 µM (inactive) | 14.8 µM (inactive) | 9.46 µM (inactive) | 10.8 µM (inactive) | 7.11 µM (inactive) | 4.63 µM (inactive) | 10.4 µM (inactive) | 7.55 µM (inactive) | 2.74 µM (inactive) | – | 4.08 µM (inactive) | 2.99 µM (inactive) | 16.1 µM (inactive) | 12.8 µM (inactive) | 11.9 µM (inactive) | 2.49 µM | 6.98 µM (inactive)
8 | COC(=O)CN(CC1O[C@@H]2OC(C)(C)O[C@@H]2C1NC(C)=O)C(=O)OCc1ccccc1 (stereo partly drawn) | > 100 µM (inactive) | > 100 µM (inactive) | 59.8 µM (inactive) | > 100 µM (inactive) | – | > 100 µM (inactive) | > 100 µM (inactive) | – | > 100 µM (inactive) | > 100 µM (inactive) | > 100 µM (inactive) | > 100 µM (inactive) | > 100 µM (inactive) | > 100 µM (inactive) | > 100 µM (inactive) | > 100 µM (inactive) | > 100 µM (inactive) | > 100 µM | > 100 µM (inactive)
9 | CN(C)c1ccc(/C=C2\N=C(c3ccc([N+](=O)[O-])cc3)OC2=O)cc1 | 71 µM (inactive) | > 100 µM (inactive) | 71.6 µM (inactive) | > 100 µM (inactive) | 21.5 µM (inactive) | 53.2 µM (inactive) | > 100 µM (inactive) | 43.7 µM (inactive) | 74.8 µM (inactive) | 56.2 µM (inactive) | 49.9 µM (inactive) | > 100 µM (inactive) | – | 36.1 µM (inactive) | > 100 µM (inactive) | 99.8 µM (inactive) | > 100 µM (inactive) | 20 µM | 23.1 µM (inactive)
10 | COc1ccc(-n2c(=O)n(C)c(=O)n2-c2ccc(OC)cc2)cc1 | > 100 µM (inactive) | > 100 µM (inactive) | > 100 µM (inactive) | > 100 µM (inactive) | – | > 100 µM (inactive) | > 100 µM (inactive) | > 100 µM (inactive) | > 100 µM (inactive) | > 100 µM (inactive) | > 100 µM (inactive) | > 100 µM (inactive) | > 100 µM (inactive) | > 100 µM (inactive) | > 100 µM (inactive) | > 100 µM (inactive) | > 100 µM (inactive) | > 100 µM | 59.2 µM (inactive)
11 | O=c1[nH]c2nc[nH]c2c(=O)n1C1CCCCC1 | > 100 µM (inactive) | > 100 µM (inactive) | > 100 µM (inactive) | > 100 µM (inactive) | > 100 µM (inactive) | > 100 µM (inactive) | > 100 µM (inactive) | > 100 µM (inactive) | > 100 µM (inactive) | > 100 µM (inactive) | > 100 µM (inactive) | > 100 µM (inactive) | > 100 µM (inactive) | > 100 µM (inactive) | > 100 µM (inactive) | > 100 µM (inactive) | > 100 µM (inactive) | > 100 µM | –
12 | COc1ccc(/N=N/C(=N\c2ccccc2)c2ccc(N(CCC#N)CCC#N)cc2)cc1 | 36.5 µM (inactive) | 88.9 µM (inactive) | 47.6 µM (inactive) | > 100 µM (inactive) | 19.9 µM (inactive) | 31.4 µM (inactive) | 61.1 µM (inactive) | – | 45.3 µM (inactive) | 40.6 µM (inactive) | 22.5 µM (inactive) | 80.7 µM (inactive) | 95.3 µM (inactive) | 31.3 µM (inactive) | > 100 µM (inactive) | > 100 µM (inactive) | 76.9 µM (inactive) | 81.3 µM | –
13 | CC(=O)OCC1OC(SC2=N/C(=C\c3ccc(Br)s3)C(=O)N2CN2CCOCC2)C(OC(C)=O)C(OC(C)=O)C1OC(C)=O (stereo not drawn) | 18.6 µM (inactive) | 13.6 µM (inactive) | 14.9 µM (inactive) | 11.3 µM (inactive) | – | 16.3 µM (inactive) | 16.7 µM (inactive) | – | 16.3 µM (inactive) | 23 µM (inactive) | 15.4 µM (inactive) | 17.9 µM (inactive) | 20.4 µM (inactive) | 10.3 µM (inactive) | 22.9 µM (inactive) | 19.9 µM (inactive) | 16.5 µM (inactive) | 16.6 µM | 12.9 µM (inactive)
14 | COc1ccc(CNc2cc(=O)n(C)c(=O)[nH]2)cc1 | > 100 µM (inactive) | > 100 µM (inactive) | > 100 µM (inactive) | > 100 µM (inactive) | 35.6 µM (inactive) | > 100 µM (inactive) | > 100 µM (inactive) | > 100 µM (inactive) | > 100 µM (inactive) | > 100 µM (inactive) | > 100 µM (inactive) | > 100 µM (inactive) | > 100 µM (inactive) | > 100 µM (inactive) | > 100 µM (inactive) | > 100 µM (inactive) | – | > 100 µM | > 100 µM (inactive)
15 | Cc1ccc2nc(Cl)c(/C=N/N3C(=O)/C(=C/c4ccccc4S)N=C3c3ccccc3)cc2c1 | 31.4 µM (inactive) | 35.7 µM (inactive) | 49.5 µM (inactive) | – | – | 28.1 µM (inactive) | 48.6 µM (inactive) | 15.5 µM (inactive) | 47.8 µM (inactive) | 38.3 µM (inactive) | 26.9 µM (inactive) | 44.6 µM (inactive) | 22.9 µM (inactive) | 11.7 µM (inactive) | > 100 µM (inactive) | 52.8 µM (inactive) | 53.3 µM (inactive) | 37.8 µM | 34.8 µM (inactive)
16 | O=Cc1cccc2c1Oc1c(cccc1C(=O)O)S2 | 50.4 µM (inactive) | 85.3 µM (inactive) | > 100 µM (inactive) | > 100 µM (inactive) | – | 62.7 µM (inactive) | > 100 µM (inactive) | – | 53.7 µM (inactive) | > 100 µM (inactive) | 89.3 µM (inactive) | 81.1 µM (inactive) | 36 µM (inactive) | – | > 100 µM (inactive) | 87.7 µM (inactive) | 56.1 µM (inactive) | 35.4 µM | 45.7 µM (inactive)
